We go through twelve compounds from patent publication US4835157A, “Thieno- and furopyrimidine-2,4-dione piperidine derivatives as serotonin antagonists and alpha adrenergic blocking agents” (Ortho Pharmaceutical Corporation, priority 1988, dated 1989).

One test has as its target T1, 5HT1A receptor (Rattus norvegicus, UniProt P19327).
T1 construct: Membrane fragments were prepared from prefrontal cortex; from tissue; host or cells: prefrontal/frontal cortex of female rats (about 150 g), membrane fragments
T1 sequence (P19327 1-422): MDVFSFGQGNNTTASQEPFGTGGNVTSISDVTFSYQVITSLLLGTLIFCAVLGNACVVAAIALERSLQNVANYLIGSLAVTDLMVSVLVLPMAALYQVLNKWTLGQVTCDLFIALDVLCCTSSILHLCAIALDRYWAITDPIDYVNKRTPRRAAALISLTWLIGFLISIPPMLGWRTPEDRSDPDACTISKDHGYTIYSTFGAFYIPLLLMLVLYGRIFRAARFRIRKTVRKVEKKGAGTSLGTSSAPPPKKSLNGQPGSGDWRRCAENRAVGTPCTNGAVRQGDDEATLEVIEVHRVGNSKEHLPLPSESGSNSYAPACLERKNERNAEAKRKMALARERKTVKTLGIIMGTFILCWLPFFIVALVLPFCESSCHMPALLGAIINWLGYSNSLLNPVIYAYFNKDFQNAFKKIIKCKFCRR
Put plainly: Brain Serotonin (5HT1A) radioreceptor Assay (3H-8-OH DPAT displacement, rat frontal cortex membranes). The format is binding. The following applies: for inhibition at 1 µM: read-out: Brain 5-HT1 Receptor % displaced (% inhibition); for pIC50: rat frontal cortex membranes, pH 7.4, read-out: Brain 5-HT1 Receptor IC50. How it is done: Brain Serotonin (5HT1A) radioreceptor Assay
The text objects of this procedure were rat frontal cortex membranes. Membrane fragments were prepared from prefrontal cortex disected from brains obtained from female rats (≈150 g). The 5HT1A sites were labeled with ^3 H-8-OH dipropylaminotetralin (8-OH-DPAT). Membrane fragments, ^3 H-8-OH DPAT, TRIS buffer (pH 7.4) and unlabeled compound were incubated for 10 minutes at 37° C. and then for 10 minutes at 4° C. Separation of bound from unbound ^3 H-8-OH DPAT was performed by vacuum filtration on a glass fiber disc. The ability of a compound to compete with ^3 H-8-OH DPAT for binding sites is a measure of the affinity of the compound for the 5HT1A receptor. Specific binding was determined by the difference between total counts bound and the counts bound in the presence of […] 5-hydroxytryptamine.

Test [1] relates to Serotonin-Induced Smooth Muscle Contractions (rabbit thoracic aorta). The test is described as follows: Inhibition of Serotonin-Induced Smooth Muscle Contractions (isolated thoracic aorta strips). The class given is cell-based. The following applies: Oryctolagus cuniculus, 10 min, concentration shifting the serotonin dose curve 10x to the right, 10 min preincubation, read-out: 5-HT-Induced Smooth Muscle Contraction DR10. How it is done:
Inhibition of Serotonin-Induced Smooth Muscle Contractions
The test objects of this Example were canines and rabbits. Rabbits were sacrificed by T-61 injection and the thoracic aorta was removed immediately. The aorta was placed in warmed, oxygenated Krebs-Henseleit buffer. After the tissue was cleaned, a 2-3 mm wide strip was cut helically from each aorta. A strip of approximately 5 cm was suspended in Krebs-Henseleit buffer at 37° C. in a 25 ml tissue bath and the tissues equilibrated at an initial resting tension of 4 g for 90-120 minutes. An initial serotonin dose curve, 0.01-10 μM was then done on each tissue, followed by a 60 minute washout and reequilibration. The test drug was then added for a 10 minute preincubation and another serotonin dose curve was done using 0.01-100 μM.
Results are expressed as DR10 values. This is the concentration of the compound required to shift the serotonin dose curve 10x to the right, i.e., the concentration of antagonist at which the concentration of serotonin required for 50% maximal contraction is increased ten-fold.

The test system of test [2] is serotonin-induced platelet aggregation. Put plainly: Platelet Aggregation Assay (serotonin-induced). As to conditions: Platelet; human plasma, serotonin 5 μM. The format is cell-based. How it is done: Platelet Aggegation Assay
Human blood was collected into tubes containing sodium citrate. The plasma was separated by centrifugation and was used as the source of platelets. Serotonin (5 μM) was used as the agonist to induce platelet aggregation. A control aggregation curve (as measured by the decrease in absorbance in transmitted light) was obtained in the presence of serotonin and in the absence of test compound. The test compound was added to an identical sample in a cuvette for one minute before addition of serotonin to yield the experimental curve.

The target of test [3] is T2, 5HT2 (Rattus norvegicus, UniProt P14842). The test is described as follows: Brain Serotonin (5-HT2) Radioreceptor Assay (3H-ketanserin displacement, rat frontal cortex membranes). As to conditions: 15 min at 37° C. Set-up: dissected from brains obtained from female rats; from tissue; host or cells: frontal cortex of female rats (about 150 g), membrane fragments. The format is binding. How it is done:
Brain Serotonin (5-HT2) Radioreceptor Assay
The test objects of this Example were rat frontal cortex membranes. Mebrane fragments were prepared from the frontal cortex dissected from brains obtained from female rats (≈150 g). […] Compound bound to the receptor site was separated from the remaining unbound compound by vacuum filtration. […] Specific binding was determined by the difference between total counts bound and counts bound in the presence of 10^-6 M methysergide.

Test [4] addresses T2, 5HT2. Put plainly: 5HT2 Blockade in vivo (antagonism of 5HT induced pressor responses). The arrangement: Spontaneously hypertensive rats were anesthetized with sodium pentobarbital; from tissue; host or cells: whole animal: anesthetized spontaneously hypertensive rats (vasculature); species or system spontaneously hypertensive rats. As to conditions: for ED50: rat, iv, read-out: 5-HT-Induced Pressor Response ED50. How it is done: Antagonism of 5HT induced pressor responses was used to assess 5HT2 blockade in vivo. Spontaneously hypertensive rats were anesthetized with sodium pentobarbital (50 mg/kg, i.p.). The right carotid artery and vein were cannulated for pressure recording and drug injection, respectively. The trachea was cannulated, the rat placed on a respirator and ventilated with room air at 50-60 breaths/minute. Rats were pretreated with prazosin hydrochloride (1 mg/kg, i.v., blous) and pentolinium tartrate (5 mg/kg, i.v., bolus). After 10 minutes equilibration, the rat was challenged with 5HT (100 μg/kg) which elevates mean arterial pressure (MAP) 60-100 mmHg; non-responsive rats were discarded.
After a baseline had been reestablished, bolus injections of 5HT (100 μg/kg, i.v.) were given and the MAP responses were evaluated both pre- and post-drug administration. 5HT challenges were repeated 10 minutes after each dose of antagonist. Up to three cumulative doses of the antagonist were given to a single animal.

The next test relates to serotonin receptors. The test is described as follows: Inhibition of 5-HTP-Induced Head Twitching. The format is in vivo. The following applies: male CD1 mice; for Inhibit. of 5-HTP-Head Twitch (result in words): @ 10 (mg/kg, p.o.); for Inhibit. of 5-HTP-Head Twitch ED50: 5-HTP 160 mg/kg i.v. after one hour. How it is done:
Inhibition of 5-HTP-Induced Head Twitching
This test detects compounds with antagonistic activity of serotonin receptors in vivo, and is a modified procedure of Corne, Pickering and Warner, Brit. J. Pharmacol. 20, 106 (1963). Groups of male CD1 mice were fasted overnight but allowed water ad libitum. They were deprived of water during the course of the experiment. The mice were weighed and treated orally or parenterally with the test compound in a dose volume of 10 ml/kg. Doses of test substance were calculated based upon the active compound. Substances for oral administration were dissolved or suspended in a 0.5% aqueous methylcellulose (15 centipoises) vehicle containing 4 ml of Tween 80/l.
A dose of 160 mg/kg of L-5-hydroxytryptophan (5-HTP) was administered i.v. in a dose volume of 5 ml/kg after one hour. The test mouse was restrained in a rodent restrainer that allowed the tail to extend out the back. The tail was then placed in tepid (but not scalding) water for approximately 10 seconds to soften the skin and dilate the tail vein. A 1 ml syringe and 25 gauge (5/8 inch) needle was used to administer the 5-HTP solution into one of the lateral tail veins.
A timer was started after dosing with 5-HTP to the first animal of the test group. […] A head twitch involves the head, neck and ears and has the appearance of an exaggerated pinal reflex. The number of head twitches for each individual vehicle-treated mouse were recorded to establish a historical baseline.
The active compounds in the test block the twitch response (the response rated all or none).

pIC50: −log10 of the molar value. Where two headings read alike, the source gives them in different places.

T2 sequence (P14842 whole entry, the tested form may be a part): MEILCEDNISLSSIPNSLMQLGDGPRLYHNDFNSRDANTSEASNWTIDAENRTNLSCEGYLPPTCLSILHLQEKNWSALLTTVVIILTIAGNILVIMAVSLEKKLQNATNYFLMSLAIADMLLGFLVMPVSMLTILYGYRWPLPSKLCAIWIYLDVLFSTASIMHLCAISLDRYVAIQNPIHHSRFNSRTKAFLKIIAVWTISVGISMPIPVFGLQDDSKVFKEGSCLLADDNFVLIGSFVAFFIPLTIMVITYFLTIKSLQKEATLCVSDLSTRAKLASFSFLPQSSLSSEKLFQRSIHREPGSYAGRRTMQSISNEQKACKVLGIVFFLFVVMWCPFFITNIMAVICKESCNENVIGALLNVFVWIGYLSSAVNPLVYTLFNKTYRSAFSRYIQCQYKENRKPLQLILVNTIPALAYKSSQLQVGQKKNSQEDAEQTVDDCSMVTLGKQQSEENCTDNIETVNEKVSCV

Broadly, the inhibition is the drop in the measured response relative to a control, in per cent. As usually defined, the pIC50 is the negative decadic logarithm of the IC50, by convention in mol/L. What is called ED50 is the midpoint of the dose-response relation. `CC(C)(C)C(=O)n1c(=O)n(CCN2CCC(=C(c3ccc(F)cc3)c3ccc(F)cc3)CC2)c(=O)c2cscc21` [Example 7, 3-[2-[4-[Bis(4-fluorophenyl)methylene]piperidin-1-yl]ethyl]-1-(2,2-dimethyl-1-oxopropyl)thieno[3,4-d]pyrimidine-2,4-dione]: the inhibition at 1 µM at 5HT1A receptor (@ 1 μM, 3H-8-OH DPAT) was 3%. Moreover, the IC (10-fold shift) in test [1] was 0.02 µM. The pIC50 in test [2] is 5.60; at 5HT2 [3] it was 9.51. The ED50 on 5HT2 [4] was determined as 0.038 mg/kg.

Consider `O=C(c1ccccc1)n1c(=O)n(CCN2CCC(=C(c3ccc(F)cc3)c3ccc(F)cc3)CC2)c(=O)c2cscc21` [Example 8], for which the inhibition at 1 µM on 5HT1A receptor (@ 1 μM, 3H-8-OH DPAT) turned out to be 0%. Moreover, the IC (10-fold shift) in test [1] is 0.01 µM. Besides, in the test on serotonin receptors, the “Inhibit. of 5-HTP-Head Twitch (result in words)” value is on record as “Inact”. Besides, the negative logarithm of the IC50 (pIC50) at 5HT2 [3] is 6.70. For the same compound, the 50% effective dose (ED50) at 5HT2 [4] was 0.038 mg/kg.

For the compound `O=C(c1ccc(F)cc1)C1CCN(CCn2c(=O)c3cscc3n(C(=O)c3ccccc3)c2=O)CC1` [Example 12, 1-Benzoyl-3-[2-[4-(4-fluorobenzoyl)piperidin-1-yl]ethyl]thieno[3,4-d]pyrimidine-2,4-dione], on 5HT1A receptor (@ 1 μM, 3H-8-OH DPAT), the inhibition at 1 µM is 24%. For the same compound, the values for the pIC50 (in test [2]; at 5HT2 [3]) were 7.00 and 8.07, respectively. Moreover, the “Inhibit. of 5-HTP-Head Twitch ED50” value with serotonin receptors is 1.74 mg/kg, p.o. Besides, the “5-HT-Induced Pressor Response, % attenuation” value at 5HT2 [4] (@ 0.3 (mg/kg), anesthetized SHR, 5HT 100 μg/kg i.v.) is recorded as 44%.

Regarding `CC(C)(C)C(=O)n1c(=O)n(CCN2CCC(C(=O)c3ccc(F)cc3)CC2)c(=O)c2cscc21` [Example 13], the inhibition at 1 µM on 5HT1A receptor (@ 1 μM, 3H-8-OH DPAT) was 31%. The IC (10-fold shift) in test [1] was 0.03 µM. Besides, the “Inhibit. of 5-HTP-Head Twitch ED50” value with serotonin receptors is recorded as 1.98 mg/kg, p.o. Moreover, the pIC50 at 5HT2 [3] was 7.82.

As to `CCCCn1c(=O)n(CCN2CCC(C(=O)c3ccc(F)cc3)CC2)c(=O)c2cscc21` [Example 15, 1-Butyl-3-[2-[4-(4-fluorobenzoyl)piperidin-1-yl]ethyl]thieno[3,4-d]pyrimidine-2,4-dione 1/4 Hydrate], the inhibition at 1 µM at 5HT1A receptor (@ 1 μM, 3H-8-OH DPAT) was found to be 0%. For the same compound, the “Inhibit. of 5-HTP-Head Twitch ED50” value in the test with serotonin receptors is recorded as 1-10 mg/kg, p.o. Moreover, the pIC50 at 5HT2 [3] is 6.35.

In the case of `Cc1scc2[nH]c(=O)n(CCN3CCC(C(=O)c4ccc(F)cc4)CC3)c(=O)c12` [Example 16, 3-[2-[4-(4-Fluorobenzoyl)piperidin-1-yl]ethyl]-5-methylthieno[3,4-d]pyrimidine-2,4-dione], the inhibition at 1 µM at 5HT1A receptor (@ 1 μM, 3H-8-OH DPAT) is 2%. Moreover, the IC (10-fold shift) in test [1] is 0.019 µM. The values for the pIC50 (in test [2]; at 5HT2 [3]) were 6.42 and 8.15, respectively. For the same compound, the ED50 at 5HT2 [4] was 0.119 mg/kg.

As to `Cc1scc2[nH]c(=O)n(CCN3CCC(=C(c4ccc(F)cc4)c4ccc(F)cc4)CC3)c(=O)c12` [Example 17], the inhibition at 1 µM on 5HT1A receptor (@ 1 μM, 3H-8-OH DPAT) was 0%. Moreover, the “Inhibit. of 5-HTP-Head Twitch (result in words)” value with serotonin receptors was “Inact”. The compound further gave a pIC50 on 5HT2 [3] of 7.49.

`CCCCn1c(=O)n(CCN2CCC(C(=O)c3ccc(F)cc3)CC2)c(=O)c2ccsc21` [Example 18, 1-Butyl-3-[2-[4-(4-fluorobenzoyl)piperidin-1-yl]ethyl]thieno[2,3-d]pyrimidine-2,4-dione]: the inhibition at 1 µM on 5HT1A receptor (@ 1 μM, 3H-8-OH DPAT) came to 17%. Moreover, the “Inhibit. of 5-HTP-Head Twitch (result in words)” value in the test with serotonin receptors is reported as “Inact”. The same compound had a pIC50 on 5HT2 [3] of 7.64.

As to `O=C(c1ccc(F)cc1)C1CCN(CCCCn2c(=O)[nH]c3cscc3c2=O)CC1` [Example 19, 3-[4-[4-(4-Fluorobenzoyl)piperidin-1-yl]butyl]thieno[3,4-d]pyrimidine-2,4-dione], the pIC50 is 6.68 on 5HT1A receptor (3H-8-OH DPAT) and 7.90 on 5HT2 [3]. Moreover, the “Inhibit. of 5-HTP-Head Twitch ED50” value in the test with serotonin receptors was 1-10 mg/kg, p.o.

With `O=c1[nH]c2cscc2c(=O)n1CCCCCN1CCC(=C(c2ccc(F)cc2)c2ccc(F)cc2)CC1` [Example 20, 3-[5-[4-[Bis(4-fluorophenyl)methylene]piperidin-1-yl]pentyl]thieno[3,4-d]pyrimidine-2,4-dione], the pIC50 was 6.57 on 5HT1A receptor (3H-8-OH DPAT), 6.52 in test [2] and 6.19 on 5HT2 [3]. For the same compound, the IC (10-fold shift) in test [1] turned out to be 0.085 µM.

Turning to `Cn1c(=O)n(CCN2CCC(=C(c3ccc(F)cc3)c3ccc(F)cc3)CC2)c(=O)c2cscc21` [Example 23], the pIC50 on 5HT1A receptor (3H-8-OH DPAT) was 5.52; in test [2], 4.77; on 5HT2 [3] it was 8.74. In addition, the IC (10-fold shift) in test [1] is 0.066 µM. For the same compound, the ED50 at 5HT2 [4] was above 0.3 mg/kg.

`O=c1[nH]c2cscc2c(=O)n1CCN1CC=C(c2ccccc2)CC1` [Example 24, 3-[2-[4-Phenyl-1,2,3,6-tetrahydropyridin-1-yl]ethyl]thieno[3,4-dy]pyrimidine-2,4-dione]: the inhibition at 1 µM on 5HT1A receptor is 53%. Besides, the “Inhibit. of 5-HTP-Head Twitch (result in words)” value in the test on serotonin receptors was “Inact”. The pIC50 at 5HT2 [3] is 7.54.
